Data: US11479554B2, “Pharmaceutical compositions comprising perillyl alcohol derivatives” (NeOnc Technologies, Inc., priority 2015, dated 2022)

What was measured:
[1] = test system: MGMT negative human melanoma cells A2058; experiment: Colony formation assay (cytotoxicity), A2058 melanoma cells; format: cell-based; conditions: 48-hour drug incubation, colonies counted 7-10 days later, compared at similar concentrations (FIG. 1)
Experimental: (§1) The cytotoxicity of TMZ, POH-TMZ, and POH-TMZ-Linoleate were studied by colony formation assay of A2058 and A375 melanoma cells. A2058 and A375 cells were harvested and made single cell suspension in culture medium (DMEM with 10% FBS, 1% Penicillin/Streptomycin). 500 cells/well were seeded into 12-well plate (tissue culture treated, from Olympus Plastics) pre-warmed culture medium at 37° C. The cells were cultured overnight for attachment to the plate. Then the medium was removed and replaced with fresh medium containing varied concentrations of drugs (or no drugs as a control) for further 48-hour incubation. After 48 hours treatment, the medium was aspirated and replaced with normal culture medium. 7-10 days later, the culture medium was aspirated, and the colonies formed inside the wells were washed with cold PBS once. Then the colonies were stained with 0.1% methylene blue (in methanol) for 4-6 hours. The plates were then washed and the formed colonies counted (the colonies formed with 20 cells or more are countable).

[2] = test system: MGMT positive human melanoma cells A375; experiment: Colony formation assay (cytotoxicity), A375 melanoma cells; format: cell-based; conditions: 48-hour drug incubation, colonies counted 7-10 days later, compared at similar concentrations (FIG. 2)
Experimental: as §1

[3] = test system: human melanoma tumor cells, A2058; experiment: In vivo tumor growth inhibition, subcutaneous A2058 melanoma in nude mice, topical treatment, with CD31 histology
Experimental: Inhibition of tumor growth by POH-TMZ-linoleate was studied in nude mice. Nude mice were injected subcutaneously with 2×10^6 human melanoma tumor cells, A2058. The melanoma cells were allowed to form a palpable nodule in the mice. When the tumor size reached 1.0-1.5 cm in diameter in any dimension, a control mouse was treated topically with a vehicle (10% DMSO in 45% Glycerol+45% ethanol), and a test mouse was topically treated with TPL (50 mM TPL working solution was reconstituted in 45% Glycerol+45% Ethanol, and 100 μl (25 mg/kg) was applied topically on the skin which covers the whole tumor). The control mouse and the test mouse were both treated twice daily for 14 days.
After the 14 days of treatment the mice were sacrificed, the tumor removed, sectioned at 8 μm, fixed with acetone, and stored at −20° C. For histological analysis, the tissues were blocked with sea block and stained with the primary antibody Rat anti Mouse (1:50) overnight following which secondary biotinylated goat anti rat antibody (1:200) was added for 45 minutes, washed and avidin biotin complex, ABC elite was added for 30 minutes, washed and then stained with AEC and counter stained with hematoxylin. Such staining was used to evaluate the endothelial marker CD31 expression, which is representative of the amounts of blood vessels in the tumor. Staining images were captured at 40× under optical microscope. […] The histological analysis results were further quantified using ImageJ software by measuring the average area of staining in the tumors of the test mouse after TPL treatment and the control mouse, where the average area of staining was calculated based on the red precipitate of the stain in μm^2. From FIG. 5, it can be seen that the average area of staining is much smaller in the tumor of the test mouse than that in the control mouse.

Compound | colonies count (effectiveness in killing the melanoma cells) [1] | colonies count (effectiveness in killing the melanoma cells) [2] | tumor angiogenesis (CD31 staining, visual inspection) versus vehicle-treated mouse ([3]; after 14 days of topical treatment, FIGS. 4D-4F vs 4A-4C) | average area of CD31 staining in the tumor versus control mouse ([3]; after 14 days of topical treatment, ImageJ quantification, FIG. 5) | vascularization of the tumor compared with the tumor before the treatment ([3]; topical 25 mg/kg twice daily for 14 days, FIG. 3B vs FIG. 3A) | appearance of the tumor surface after treatment ([3]; topical 50 mM, 100 μl (25 mg/kg) twice daily for 14 days, FIG. 3B)
C=C(C)[C@@H]1CC=C(COC(=O)NC(=O)c2ncn3c(=O)n(C)nnc23)CC1 [POH-TMZ, reference compound] | more effective than TMZ | more effective than TMZ |  |  |  | 
C=C(C)[C@@H]1CC=C(COC(=O)N(C(=O)CCCCCCC/C=C\C/C=C\CCCCC)C(=O)c2ncn3c(=O)n(C)nnc23)CC1 [POH-TMZ-linoleate, (3-Methyl-4-oxo-3,4-dihydro-imidazo[5,1-d][1,2,3,5]tetrazine-8-carbonyl)-octadeca-9,12-dienoyl-carbamic acid 4-isopropenyl-cyclohex-1-enylmethyl ester] | more effective in killing the melanoma cells than POH-TMZ | more effective in killing the melanoma cells than POH-TMZ | much lower | much smaller | reduced vascularization | developed a hard surface
